Results published in patent publication US12435060B2, “Acylamino bridged heterocyclic compound, and composition and application thereof” (BEIJING SCITECH-MQ PHARMACEUTICALS LIMITED, priority 2019, dated 2025).

Tested on: HT29 cells
Experiment: Inhibition of cell necrosis (CCK8 method), induced programmed necrosis of HT29 cells
Format: cell-based
Conditions: Homo sapiens, HT-29; rescue from necrosis induced by TNF-α 20 ng/mL, AT-406 1 μM, Z-VAD-FMK 20 μM; 16-20 hours; CCK-8, OD 450 nm
Procedure, shortened: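 HT29 cells in McCOY's 5A with 10% FBS were pre-treated for 30 min with compound (9 fourfold steps, 25000 to 0.38 nM final, 0.25% DMSO). Necrosis was then induced with TNF-α 20 ng/mL, AT-406 1 μM and Z-VAD-FMK 20 μM for 16-20 h. Viability was read by CCK-8 OD450, normalized between uninduced and induced wells, and IC50 was curve-fitted.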

SMILES	IC50
Cc1ccc(OCCCC(C)(C)O)cc1-c1ccnc(NC(=O)c2nnc(CC3CCCCCC3)[nH]2)c1 [Example 222, 5-(cycloheptylmethyl)-N-(4-(5-((4-hydroxy-4-methylpentyl)oxy)-2-methylphenyl)pyridin-2-yl)-4H-1,2,4-triazole-3-carboxamide]	≤ 100 nM
O=C(Nc1cc(-c2cc(OCCC3CCOCC3)ccc2Cl)ccn1)c1nnc(Cc2ccccc2F)[nH]1 [Example 404, N-(4-(2-chloro-5-(2-(tetrahydro-2H-pyran-4-yl)ethoxy)phenyl)pyridin-2-yl)-5-(2-fluorobenzyl)-4H-1,2,4-triazole-3-carboxamide]	≤ 100 nM
Cc1ccc(C2CCOCC2)cc1-c1ccnc(NC(=O)c2nnc(Cc3ccccc3)[nH]2)c1 [Example 479, 5-benzyl-N-(4-(2-methyl-5-(tetrahydro-2H-pyran-4-yl)phenyl)pyridin-2-yl)-4H-1,2,4-triazole-3-carboxamide]	100 to 1000 nM
CCC(O)(CC)CCCOc1ccc(Cl)c(-c2cc(NC(=O)c3nnc(CC4CCCCC4)[nH]3)ncc2Cl)c1 [Example 418, N-(5-chloro-4-(2-chloro-5-((4-ethyl-4-hydroxyhexyl)oxy)phenyl)pyridin-2-yl)-5-(cyclohexylmethyl)-4H-1,2,4-triazole-3-carboxamide]	100 to 1000 nM
Cc1ccc(OCCCC(C)(C)O)cc1-c1ccnc(NC(=O)c2nnc(Cc3ccc(C#N)cc3)[nH]2)c1 [Example 191, 5-(4-cyanobenzyl)-N-(4-(5-((4-hydroxy-4-methylpentyl)oxy)-2-methylphenyl)pyridin-2-yl)-4H-1,2,4-triazole-3-carboxamide]	100 to 1000 nM
CC(C)OCCOc1ccc(C(F)(F)F)c(-c2ccnc(NC(=O)c3nnc(CC4CCCC4)[nH]3)c2)c1 [Example 289, 5-(cyclopentylmethyl)-N-(4-(5-(2-isopropoxyethoxy)-2-(trifluoromethyl)phenyl)pyridin-2-yl)-4H-1,2,4-triazole-3-carboxamide]	≤ 100 nM
CCOc1ncccc1-c1ccnc(NC(=O)c2nnc(Cc3ccccc3)[nH]2)c1 [Example 22, 5-benzyl-N-(2-ethoxy-[3,4′-bipyridin]-2′-yl)-4H-1,2,4-triazole-3-carboxamide]	1000 to 10000 nM
CC(C)(O)CCCOc1ccc(C(F)(F)F)c(-c2cc(NC(=O)c3nnc(CC4CCCC4)[nH]3)ncn2)c1 [Example 452, 5-(cyclopentylmethyl)-N-(6-(5-((4-hydroxy-4-methylpentyl)oxy)-2-(trifluoromethyl)phenyl)pyrimidin-4-yl)-4H-1,2,4-triazole-3-carboxamide]	≤ 100 nM
COCCCOc1ccc(Cl)c(-c2ccnc(NC(=O)c3nnc(CC4CCCCC4)[nH]3)c2)c1 [Example 398, N-(4-(2-chloro-5-(3-methoxypropoxy)phenyl)pyridin-2-yl)-5-(cyclohexylmethyl)-4H-1,2,4-triazole-3-carboxamide]	≤ 100 nM
CC(C)(O)COc1ccc(C(F)(F)F)c(-c2ccnc(NC(=O)c3nnc(CC4CCCC4)[nH]3)c2)c1 [Example 266, 5-(cyclopentylmethyl)-N-(4-(5-(2-hydroxyl-2-methylpropoxy)-2-(trifluoromethyl)phenyl)pyridin-2-yl)-4H-1,2,4-triazole-3-carboxamide]	≤ 100 nM
COc1ccc(Cl)c(-c2cncc(NC(=O)c3nnc(Cc4ccccc4)[nH]3)c2)c1 [Example 31, 5-benzyl-N-(5-(2-chloro-5-methoxyphenyl)pyridin-3-yl)-4H-1,2,4-triazole-3-carboxamide]	> 10000 nM
Cc1ccc(OCCCC(C)(C)O)cc1-c1ccnc(NC(=O)c2nnc(Cc3cccnc3)[nH]2)c1 [Example 220, N-(4-(5-((4-hydroxy-4-methylpentyl)oxy)-2-methylphenyl)pyridin-2-yl)-5-(pyridin-3-ylmethyl)-4H-1,2,4-triazole-3-carboxamide]	≤ 100 nM
COc1cc(Cc2nnc(C(=O)Nc3cc(-c4cc(OCCCC(C)(C)O)ccc4Cl)ccn3)[nH]2)ccc1F [Example 343, N-(4-(2-chloro-5-((4-hydroxy-4-methylpentyl)oxy)phenyl)pyridin-2-yl)-5-(4-fluoro-3-methoxybenzyl)-4H-1,2,4-triazole-3-carboxamide]	1000 to 10000 nM
COc1ccc(OC)c(-c2ccnc(NC(=O)c3nnc(Cc4ccccc4)[nH]3)c2)c1 [Example 18, 5-benzyl-N-(4-(2,5-dimethoxyphenyl)pyridin-2-yl)-4H-1,2,4-triazole-3-carboxamide]	1000 to 10000 nM
O=C(Nc1cc(-c2cc(OCCC3CCOCC3)ccc2C(F)(F)F)ccn1)c1nnc(Cc2cccc(F)c2)[nH]1 [Example 307, 5-(3-fluorobenzyl)-N-(4-(5-(2-(tetrahydro-2H-pyran-4-yl)ethoxy)-2-(trifluoromethyl)phenyl)pyridin-2-yl)-4H-1,2,4-triazole-3-carboxamide]	≤ 100 nM
CC(C)(O)COc1ccc(Cl)c(-c2ccnc(NC(=O)c3nnc(Cc4ccccc4F)[nH]3)c2)c1 [Example 364, 5-(2-fluorobenzyl)-N-(4-(2-chloro-5-(2-hydroxyl-2-methylpropoxy)phenyl)pyridin-2-yl)-4H-1,2,4-triazole-3-carboxamide]	≤ 100 nM

SMILES	IC50
Cc1ccc(OCCCC(C)(C)O)cc1-c1ccnc(NC(=O)c2nnc(Cc3ccc(F)cc3F)[nH]2)c1 [Example 201, 5-(2,4-difluorobenzyl)-N-(4-(5-((4-hydroxy-4-methylpentyl)oxy)-2-methylphenyl)pyridin-2-yl)-4H-1,2,4-triazole-3-carboxamide]	≤ 100 nM
O=C(Nc1cc(-c2cccc3c2OCCO3)ccn1)c1nnc(Cc2ccccc2)[nH]1 [Example 42, 5-benzyl-N-(4-(2,3-dihydrobenzo[b][1,4]dioxin-5-yl)pyridin-2-yl)-4H-1,2,4-triazole-3-carboxamide]	1000 to 10000 nM
CC(C)(C)OCCOc1ccc(C#N)c(-c2ccnc(NC(=O)c3nnc(Cc4ccccc4)[nH]3)c2)c1 [Example 74]	100 to 1000 nM
Cc1cc(Cc2nnc(C(=O)Nc3cc(-c4cc(OCCCC(C)(C)O)ccc4C)ccn3)[nH]2)ccc1F [Example 208, 5-(4-fluoro-3-methylbenzyl)-N-(4-(5-((4-hydroxy-4-methylpentyl)oxy)-2-methylphenyl)pyridin-2-yl)-4H-1,2,4-triazole-3-carboxamide]	100 to 1000 nM
COCCCOc1ccc(C)c(-c2ccnc(NC(=O)c3nnc(Cc4ccccc4)[nH]3)c2)c1 [Example 141, 5-benzyl-N-(4-(5-(3-methoxypropoxy)-2-methylphenyl)pyridin-2-yl)-4H-1,2,4-triazole-3-carboxamide]	≤ 100 nM
O=C(Nc1cc(-c2cc(OCC3CCOCC3)ccc2C(F)(F)F)ccn1)c1nnc(Cc2cccc(F)c2)[nH]1 [Example 301, 5-(3-fluorobenzyl)-N-(4-(5-((tetrahydro-2H-pyran-4-yl)methoxy)-2-(trifluoromethyl)phenyl)pyridin-2-yl)-4H-1,2,4-triazole-3-carboxamide]	≤ 100 nM
O=C(Nc1cc(-c2cc(OCCC3CCOCC3)ccc2Cl)ncn1)c1nnc(Cc2ccccc2)[nH]1 [Example 470, 5-benzyl-N-(6-(2-chloro-5-(2-(tetrahydro-2H-pyran-4-yl)ethoxy)phenyl)pyrimidin-4-yl)-4H-1,2,4-triazole-3-carboxamide]	≤ 100 nM
Cc1ccc(OCCC(C)(C)C)cc1-c1ccnc(NC(=O)c2nnc(Cc3ccccc3)[nH]2)c1 [Example 115, 5-benzyl-N-(4-(5-(3,3-dimethylbutoxy)-2-methylphenyl)pyridin-2-yl)-4H-1,2,4-triazole-3-carboxamide]	100 to 1000 nM
Cc1ccc(OCCCC(C)(C)O)cc1-c1ccnc(NC(=O)c2nnc(Cc3ccccn3)[nH]2)c1 [Example 219, N-(4-(5-((4-hydroxy-4-methylpentyl)oxy)-2-methylphenyl)pyridin-2-yl)-5-(pyridin-2-ylmethyl)-4H-1,2,4-triazole-3-carboxamide]	≤ 100 nM
Cc1ccc(OCCCC(C)(C)O)cc1-c1ccnc(NC(=O)c2nnc(CC3CCCCC3)[nH]2)c1 [Example 175, 5-(cyclohexylmethyl)-N-(4-(5-((4-hydroxy-4-methylpentyl)oxy)-2-methylphenyl)pyridin-2-yl)-4H-1,2,4-triazole-3-carboxamide]	≤ 100 nM
CCC(O)(CC)CCCOc1ccc(F)c(-c2cc(NC(=O)c3nnc(CC4CCCCC4)[nH]3)ncc2Cl)c1 [Example 324, 5-(cyclohexylmethyl)-N-(5-chloro-4-(5-((4-ethyl-4-hydroxyhexyl)oxy)-2-fluorophenyl)pyridin-2-yl)-4H-1,2,4-triazole-3-carboxamide]	100 to 1000 nM
CCC(O)(CC)CCCOc1ccc(Cl)c(-c2ccnc(NC(=O)c3nnc(CC4CCCCC4)[nH]3)c2)c1 [Example 362, N-(4-(2-chloro-5-((4-ethyl-4-hydroxyhexyl)oxy)phenyl)pyridin-2-yl)-5-(cyclohexylmethyl)-4H-1,2,4-triazole-3-carboxamide]	≤ 100 nM
CC(C)Oc1ccccc1-c1ccnc(NC(=O)c2nnc(Cc3ccccc3)[nH]2)c1 [Example 5, 5-benzyl-N-(4-(2-isopropyloxyphenyl)pyridin-2-yl)-4H-1,2,4-triazole-3-carboxamide]	> 10000 nM
Cc1ccc(OCCCC(C)(C)O)cc1-c1ccnc(NC(=O)c2nnc(Cc3cccc(Cl)c3F)[nH]2)c1 [Example 491, 5-(3-chloro-2-fluorobenzyl)-N-(4-(5-((4-hydroxy-4-methylpentyl)oxy)-2-methylphenyl)pyridin-2-yl)-4H-1,2,4-triazole-3-carboxamide]	100 to 1000 nM
COCCCC(O)c1ccc(C)c(-c2ccnc(NC(=O)c3nnc(Cc4ccccc4)[nH]3)c2)c1 (centres unmarked) [Example 484, 5-benzyl-N-(4-(5-(1-hydroxyl-4-methoxybutyl)-2-methylphenyl)pyridin-2-yl)-4H-1,2,4-triazole-3-carboxamide]	≤ 100 nM
CCC(O)(CC)CCCOc1ccc(Cl)c(-c2cc(NC(=O)c3nnc(CC4CCCCC4)[nH]3)ncc2F)c1 [Example 416, N-(4-(2-chloro-5-((4-ethyl-4-hydroxyhexyl)oxy)phenyl)-5-fluoropyridin-2-yl)-5-(cyclohexylmethyl)-4H-1,2,4-triazole-3-carboxamide]	≤ 100 nM
